Measured values: patent US6476199B1, “Reagents for lysergic acid diethylamide immunoassay” (priority 1996, dated 2002)

Legend:
[1] = light; pH above 7 epimerization at C-8 to iso-LSD; prolonged light oxidation at C-9; cited from earlier work
[2] = tested on: anti-LSD antibody G648; assay: ELISA microtiter plate assay, plate coated with LSD-BSA label-conjugate 21, antiserum G648; conditions: conjugate 21 coating, 405 nm, FIG. 3
[3] = tested on: anti-LSD antibody G648; assay: ELISA microtiter plate assay, plate coated with LSD-BSA label-conjugate 14, antiserum G648; assay type: binding, goats; conditions: for G648(OD): conjugate 14 coating, 405 nm, FIG. 1
Method: (§1) The novel reagents were tested in an ELISA immunoassay as described in Example 27. The N-indole derived LSD-BSA label-conjugate 14 containing the biphenyl linker was used to compete against known concentrations of LSD for binding to the anti-LSD antibodies, G648 and G651, raised against the LSD immunogen 8.

[4] = tested on: anti-LSD antibody G651; assay: ELISA microtiter plate assay, plate coated with LSD-BSA label-conjugate 21, antiserum G651; conditions: conjugate 21 coating, 405 nm, FIG. 3
[5] = tested on: anti-LSD antibody G651; assay: ELISA microtiter plate assay, plate coated with LSD-BSA label-conjugate 14, antiserum G651; assay type: binding, goats; conditions: for G651(OD): conjugate 14 coating, 405 nm
Method: as §1
FIG. 2 provides the curve generated from an ELISA microtiter plate assay, as described in Example 27, using nor-LSD as the standard.

[6] = tested on: LSD antibodies; conditions: prior-art antibodies, Van Vunakis 1971; cited from earlier work

CCN(CC)C(=O)[C@@H]1C=C2c3cccc4[nH]cc(c34)C[C@H]2N(C)C1 [LSD, D-lysergic acid diethyl amide]
stability [1]: sensitive to light and alkaline pH
G648(OD) ([2]; 0.5 ng/mL free LSD): 0.52 OD
G648(OD) ([2]; 1 ng/mL free LSD): 0.37 OD
G648(OD) ([2]; 5 ng/mL free LSD): 0.17 OD
G648(OD) ([3]; 0.5 ng/mL free LSD): 0.8 OD
G648(OD) ([3]; 1 ng/mL free LSD): 0.33 OD
G648(OD) ([3]; 5 ng/mL free LSD): 0.25 OD
G651(OD) ([4]; 0.5 ng/mL free LSD): 0.5 OD
G651(OD) ([4]; 1 ng/mL free LSD): 0.33 OD
G651(OD) ([4]; 5 ng/mL free LSD): 0.19 OD
G651(OD) ([5]; 0.5 ng/mL free LSD, FIG. 1): 1.05 OD
G651(OD) ([5]; 1 ng/mL free LSD, FIG. 1): 0.75 OD
G651(OD) ([5]; 5 ng/mL free LSD, FIG. 1): 0.39 OD
G651(OD) ([5]; 5 ng/mL free drug, FIG. 2): 0.63 OD

CCN(CC)C(=O)[C@@H]1C=C2c3cccc4[nH]cc(c34)C[C@H]2NC1 [Nor-LSD, 8β-9,10-didehydro-N,N-diethylergoline-8-carboxamide]
binding of antibody G648 raised against immunogen 8 ([3]; in words): bind
G651(OD) ([5]; 1 ng/mL free drug, FIG. 2): 1.2 OD
G651(OD) ([5]; 5 ng/mL free drug, FIG. 2): 0.88 OD
binding of antibody G651 raised against immunogen 8 ([5]; in words): bind

C[C@@H](CO)NC(=O)[C@@H]1C=C2c3cccc4[nH]cc(c34)C[C@H]2N(C)C1 [ergonovine]
competition for binding to the LSD antibodies (cross-reactivity) [6]: compete for binding

CC(C)C[C@H]1C(=O)N2CCC[C@H]2[C@]2(O)O[C@@](C)(NC(=O)[C@@H]3C=C4c5cccc6[nH]cc(c56)C[C@H]4N(C)C3)C(=O)N12 [ergosine]
competition for binding to the LSD antibodies (cross-reactivity) [6]: compete for binding

CN1C[C@H](C(=O)N[C@]2(C)O[C@@]3(O)[C@@H]4CCCN4C(=O)[C@H](Cc4ccccc4)N3C2=O)C=C2c3cccc4[nH]cc(c34)C[C@H]21 [ergotamine]
competition for binding to the LSD antibodies (cross-reactivity) [6]: compete for binding

CC[C@@H](CO)NC(=O)[C@@H]1C=C2c3cccc4c3c(cn4C)C[C@H]2N(C)C1 [methysergide]
competition for binding to the LSD antibodies (cross-reactivity) [6]: compete for binding
